# Laboratory results from US4656166A, “Antibiotic compounds derived from cephalosporins, process for their production and pharmaceutical compositions” (Sanofi, priority 1983, dated 1987).
# Assays:
# Format in all cases: cell-based
# [1] = tested on: Proteus vulgaris RL 99 bis; test: MIC, in vitro dilution method, Proteus vulgaris RL 99 bis (Table III); conditions: RL99BIS; Proteus vulgaris RL 99 bis; dilution method; read-out: MIC
# Text: (§1) The products of the invention have been studied as regards their pharmacological properties and, more especially, bacteriostatic action. This has been determined in vitro by the dilution method, and the study was on Gram negative strains.
# (§2) Results, expressed in minimum inhibiting concentrations (MIC-- μg/ml), are collected in the following table (Table III).
# [2] = tested on: Serratia RL 72; test: MIC, in vitro dilution method, Serratia RL 72 (Table III); conditions: RL72
# Text: as §1, §2
# [3] = tested on: Citrobacter RL 49; test: MIC, in vitro dilution method, Citrobacter RL 49 (Table III); conditions: RL49; Citrobacter RL 49; dilution method; read-out: MIC
# Text: as §1, §2
# [4] = tested on: Klebsiella RO 30; test: MIC, in vitro dilution method, Klebsiella RO 30 (Table III); conditions: RO30; Klebsiella RO 30; dilution method; read-out: MIC
# Text: as §1, §2
# [5] = tested on: Escherichia coli SOL 90; test: MIC, in vitro dilution method, Escherichia coli SOL 90 (Table III); conditions: SOL90; Escherichia coli SOL 90; dilution method; read-out: MIC
# Text: as §1, §2
# [6] = tested on: Enterobacter RO 154; test: MIC, in vitro dilution method, Enterobacter RO 154 (Table III); conditions: RO154; Enterobacter RO 154; dilution method; read-out: MIC
# Text: as §1, §2
# [7] = tested on: Pseudomonas RL 112; test: MIC, in vitro dilution method, Pseudomonas RL 112 (Table III); conditions: RL112
# Text: as §1, §2
Structure (SMILES),MIC [1] [µg/mL],MIC [2] [µg/mL],MIC [3] [µg/mL],MIC [4] [µg/mL],MIC [5] [µg/mL],MIC [6] [µg/mL],MIC [7] [µg/mL]
CC(C)(CN)C(=O)OCC1=C(C(=O)O)N2C(=O)C(NC(=O)/C(=N\OC3(C(=O)O)CCC3)c3csc(N)n3)C2[S+]([O-])C1 (centres unmarked) [42 208],≤ 0.12,1,0.5,0.5,0.5,0.25,4
CC(ON=C(C(=O)NC1C(=O)N2C(C(=O)O)=C(CSC(=O)c3ccc(CN)cc3)C[S+]([O-])C12)c1csc(N)n1)C(=O)O (centres unmarked) [compound 42221],≤ 0.12,2,≤ 0.12,≤ 0.12,0.25,0.25,64
CC(C)NCc1ccc(C(=O)OCC2=C(C(=O)O)N3C(=O)C(NC(=O)/C(=N\OC(C)(C)C(=O)O)c4csc(N)n4)C3[S+]([O-])C2)cc1 (centres unmarked) [42 397],≤ 0.125,1,≤ 0.125,≤ 0.125,≤ 0.125,≤ 0.125,8
CC(C)(ON=C(C(=O)NC1C(=O)N2C(C(=O)O)=C(COC(=O)CC(N)c3ccccc3)C[S+]([O-])C12)c1csc(N)n1)C(=O)O (centres unmarked) [42 026],≤ 0.12,1,0.25,0.25,0.5,4,8
CCNCc1cccc(C(=O)OCC2=C(C(=O)O)N3C(=O)C(NC(=O)/C(=N\OC(C)(C)C(=O)O)c4csc(N)n4)C3[S+]([O-])C2)c1 (centres unmarked) [42 538],≤ 0.125,0.5,0.25,0.25,0.5,0.25,8
CC(O)C(N)C(=O)OCC1=C(C(=O)O)N2C(=O)C(NC(=O)C(=NOC(C)(C)C(=O)O)c3csc(N)n3)C2[S+]([O-])C1 (centres unmarked) [41 885],0.5,4,4,0.5,1,8,8
CC(C)(O/N=C(\C(=O)NC1C(=O)N2C(C(=O)O)=C(COC(=O)CC3CCCNC3)C[S+]([O-])C12)c1csc(N)n1)C(=O)O (centres unmarked) [42 372],≤ 0.125,0.25,≤ 0.125,0.25,0.25,≤ 0.125,4
CC(CN)C(=O)OCC1=C(C(=O)O)N2C(=O)C(NC(=O)C(=NOC(C)(C)C(=O)O)c3csc(N)n3)C2[S+]([O-])C1 (centres unmarked) [42 025],0.25,1,0.5,0.5,0.5,4,4
CSCC[C@H](N)C(=O)OCC1=C(C(=O)O)N2C(=O)C(NC(=O)/C(=N\OC(C)(C)C(=O)O)c3csc(N)n3)C2[S+]([O-])C1 (some centres unmarked) [41 887],0.25,4,4,0.5,2,8,8
CC(C)(N)C(=O)OCC1=C(C(=O)O)N2C(=O)C(NC(=O)/C(=N\OC(C)(C)C(=O)O)c3csc(N)n3)C2[S+]([O-])C1 (centres unmarked) [41 858],0.5,4,1,0.5,2,8,8
NCc1ccc(C(=O)SCC2=C(C(=O)O)N3C(=O)C(NC(=O)C(=NOC4(C(=O)O)CCC4)c4csc(N)n4)C3[S+]([O-])C2)cc1 (centres unmarked) [compound 42222],≤ 0.12,1,≤ 0.12,0.5,0.5,0.5,8
CNCc1ccc(C(=O)SCC2=C(C(=O)O)N3C(=O)C(NC(=O)C(=NOC4(C(=O)O)CCC4)c4csc(N)n4)C3[S+]([O-])C2)cc1 (centres unmarked) [compound 42534],≤ 0.125,1,0.25,0.25,0.5,0.5,8
Cc1ccc(CN)c(C)c1C(=O)OCC1=C(C(=O)O)N2C(=O)C(NC(=O)C(=NOC3(C(=O)O)CCC3)c3csc(N)n3)C2[S+]([O-])C1 (centres unmarked) [42 541],≤ 0.125,0.5,0.25,≤ 0.125,0.5,0.25,4
CC(C)(O/N=C(\C(=O)NC1C(=O)N2C(C(=O)O)=C(COC(=O)[C@@H](N)Cc3c[nH]cn3)C[S+]([O-])C12)c1csc(N)n1)C(=O)O (some centres unmarked) [41 889],0.5,4,1,1,1,8,8
